Results published in US11649218B2, “C-Abl tyrosine kinase inhibitory compound embodiments and methods of making and using the same” (The USA, as represented by the Secretary, Dept. of Health …, priority 2018, dated 2023).

Experiments:
Leukemia K562 cell = Leukemia K562 cell proliferation/viability assay (CellTiterGlo, 48 hours); assay type: cell-based; design: unit not given here; settings: K562 cells
Method in brief: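 BCR-Abl-dependent K562 cells treated with compound for 48 hours in an HTS-adapted format. Viability read out with CellTiterGlo reagent.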

TLE mice model [1] = experiment: Pilocarpine TLE epilepsy model, IP pre-treatment; settings: 5 mg/Kg IP each day three days before Pilocarpine
Procedure: The injected animals were observed by 60 min after the Pilocarpine.

CML (K562) cell line = experiment: K562 cell proliferation inhibition by MTT assay, 48 hours; assay type: cell-based; settings: Homo sapiens; K562, 48 hours, determined in different assays
Procedure: In this example, the ability of two compound embodiments described here, NCGC00373060 and NCGC00373056, to induce cell death in the CML (K562) cell line was evaluated. The leukemia cells were incubated with different concentrations of the compounds for 48 hours, and the cell proliferation inhibition was evaluated by the MTT assay. […] The leukemia cells were incubated with different concentrations of each compound embodiment for 48 hours, and the cell proliferation inhibition was evaluated by the MTT assay.

hippocampal neurons = experiment: Neuronal death induced by Glutamate, MTT cell viability test
TLE mice model [2] = experiment: Pilocarpine-induced status epilepticus (SE) after 15 days of supplemented diet; assay type: in vivo, mice (C57BL/6)
Procedure: In this example, the ability of compound embodiments of the present disclosure to increase survival and diminish seizure symptoms in a TLE mice model was evaluated. […] The animals' weights were determined the week before and during the two weeks of c-Abl inhibitors treatment (results are provided in Table 12 and are illustrated graphically in FIG. 28). After 15 days of feeding, status epilepticus (SE) induction was evaluated. The mice were IP injected with Scopolamine (1.5 mg/Kg) and after 15 minutes, the SE was induced by IP injection of Pilocarpine (420 mg/Kg). The animals' behavior and the seizures induction was evaluated according to Racine's scale and the survival was determined during 60 minutes post-SE induction. […] Results are tabulated in Table 13, below and also are illustrated graphically in FIGS. 29A-29D.

[3] = Pharmacokinetic profile in plasma; assay type: in vivo, mice; settings: 12.5 mg/kg IP
[4] = Pharmacokinetic profile in brain; assay type: in vivo, mice; settings: 12.5 mg/kg IP
[5] = test system: P. falciparum strain NF54 asexual parasites; experiment: Asexual stage parasite growth inhibition, SYBR Green assay, 72 hours; assay type: cell-based; settings: NF54, 72 hours
Procedure: In this example, several of the c-Abl inhibitors were tested in the asexual […] strain of P. falciparum parasites for activity against malaria. […] The pre-diluted parasites were dispensed into a 1536-well plate (2.5 μL/well). […] The fluorescence of each well was measured at 520 nm following excitation at 490 nm using a ViewLux platereader (PerkinElmer).

[6] = mean, diet 67 ppm NCGC00373060 or 200 ppm Nilotinib

SMILES: O=C1Nc2cc(OC(F)(F)F)ccc2Oc2ccc(-c3ccnc(N4CCNCC4)c3)cc21 [NCGC00373060, 2-(2-(Piperazin-1-yl)pyridin-4-yl)-8-(trifluoromethoxy)dibenzo[b,j][1,4]oxazepin-11(10H)-one]
- Efficacy (Leukemia K562 cell): −99.1
- mortality associated to the epileptic status (TLE mice model [1]): decreases the mortality associated to the epileptic status
- seizures, latency time (TLE mice model [1]): prevented the seizures increasing the latency time
- AC50 (CML (K562) cell line): 5 µM
- protection against neuronal death induced by Glutamate (hippocampal neurons): protects neurons against neuronal death induced by Glutamate
- Survival % (TLE mice model [2]; individual mice, 60 minutes post-SE induction): 100%
- Latency SE (TLE mice model [2]; individual mice, diet 67 ppm NCGC00373060 or 200 ppm Nilotinib): 19 min
- Survival %, mean (TLE mice model [2]; mean, 60 minutes post-SE induction): 100%
- Latency SE, mean (TLE mice model [2]; [6]): 19 min
- SE %, mean (TLE mice model [2]; [6]): 40%
- Plasma concentration ([3]; Time 0.167): 4.440 µM
- Plasma concentration ([3]; Time 0.5): 4.784 µM
- Plasma concentration ([3]; Time 1): 7.844 µM
- Plasma concentration ([3]; Time 2): 4.112 µM
- Plasma concentration ([3]; Time 4): 2.709 µM
- Plasma concentration ([3]; Time 7): 1.723 µM
- Plasma concentration ([3]; Time 24): 0.581 µM
- Plasma concentration ([3]; Time 48): 0.138 µM
- Plasma concentration ([3]; Time 72): 0.070 µM
- Plasma concentration ([3]; Time 96): 0.036 µM
- Plasma concentration ([3]; Time 120): 0.011 µM
- Plasma concentration ([3]; Time 168): 0.004 µM
- Brain concentration ([4]; Time 0.167): 0.208 µmol/kg
- Brain concentration ([4]; Time 0.5): 0.275 µmol/kg
- Brain concentration ([4]; Time 1): 0.595 µmol/kg
- Brain concentration ([4]; Time 2): 0.912 µmol/kg
- Brain concentration ([4]; Time 4): 1.351 µmol/kg
- Brain concentration ([4]; Time 7): 1.887 µmol/kg
- Brain concentration ([4]; Time 24): 1.198 µmol/kg
- Brain concentration ([4]; Time 48): 0.493 µmol/kg
- Brain concentration ([4]; Time 72): 0.208 µmol/kg
- Brain concentration ([4]; Time 96): 0.089 µmol/kg
- Brain concentration ([4]; Time 120): 0.044 µmol/kg
- Brain concentration ([4]; Time 168): 0.010 µmol/kg
- % Killing [5]: 89.9%
- IC50 ([5]; Plasmodium falciparum): 1630 nM
